Test: molar heat capacity at constant pressure
Conditions: 101.33 kPa, Crystal, Large sample (1 g) DSC

[Co+3].[Nd+3].[O-2].[O-2].[O-2] [cobalt(III) neodymium(III) oxide]
Conditions	molar heat capacity at constant pressure [J/K/mol]
130 K	57.2
140 K	62.7
150 K	67.7
160 K	72.3
170 K	76.4
180 K	80.2
190 K	83.5
200 K	86.5
210 K	89.2
220 K	91.6
230 K	93.8
240 K	95.8
250 K	97.8
260 K	98.7
270 K	100.5
280 K	102.3
290 K	104.1
298.15 K	105.8
300 K	105.9
325 K	110.3
350 K	116
375 K	120.4
400 K	122.9
425 K	124.8
450 K	127.1
475 K	130.3
500 K	134.5
525 K	139.2
550 K	144.1
575 K	148.3
600 K	151.4
625 K	153.2
650 K	153.3
675 K	152.1
700 K	149.9
725 K	147.1
750 K	144.3
775 K	141.9
800 K	140.3
825 K	139.4
850 K	138.5

— the NIST ThermoML archive (doi:10.1016/j.tca.2007.09.001)
